# In patent US20240122897A1, “DMT SALTS AND THEIR USE TO TREAT BRAIN INJURY” (ALGERNON PHARMACEUTICALS INC., priority 2021, published 2024):
# pIC50, pKi: −log10 of the molar value. Where two headings read alike, the source gives them in different places.
# Assays:
# [1] = test system: cerebral ischemia-reperfusion injury; conditions: rat; cited from earlier work
# [2] = in vivo, cited from earlier work
# [3] = test system: primary rat cortical neurons; experiment: Neurite outgrowth of primary rat cortical neurons (MAP-2 immunocytochemistry)
# sigma-1 receptor [4] = target: T1, sigma-1 receptor (Homo sapiens, UniProt Q99720)
# T1 sequence (Q99720 whole entry): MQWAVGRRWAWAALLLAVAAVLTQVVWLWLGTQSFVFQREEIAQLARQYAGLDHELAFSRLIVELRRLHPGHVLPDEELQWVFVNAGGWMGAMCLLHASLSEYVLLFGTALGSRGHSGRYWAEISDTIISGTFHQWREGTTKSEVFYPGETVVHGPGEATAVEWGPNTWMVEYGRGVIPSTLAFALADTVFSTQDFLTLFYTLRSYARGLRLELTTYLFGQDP
# Protocol: (§1) IC50 values were determined by a non-linear, least squares regression analysis using MathIQ™ (ID Business Solutions Ltd., UK). […] The Hill coefficient (nH), defining the slope of the competitive binding curve, was calculated using MathIQ™.
# (§2) Biochemical assay results are presented as the percent inhibition of specific binding or activity. All other results are expressed in terms of that assay's quantitation method. Primary screening in duplicate with semi-quantitative data (e.g., estimated IC50, Ki and nH) are shown.
# sigma-1 receptor [5] = target: T1, sigma-1 receptor; experiment: biochemical; conditions: for pIC50: IC50, estimated, duplicate; for pKi: Ki, Cheng and Prusoff
# Protocol: as §1, §2
# [6] = target: T2, Serotonin (5-Hydroxytryptamine) 5-HT2A (Homo sapiens, UniProt P28223); experiment: biochemical; type: binding; conditions: for pIC50: IC50; for pKi: Ki
# T2 construct: purchased Eurofins Panlabs, Inc. 271650
# T2 sequence (P28223 whole entry): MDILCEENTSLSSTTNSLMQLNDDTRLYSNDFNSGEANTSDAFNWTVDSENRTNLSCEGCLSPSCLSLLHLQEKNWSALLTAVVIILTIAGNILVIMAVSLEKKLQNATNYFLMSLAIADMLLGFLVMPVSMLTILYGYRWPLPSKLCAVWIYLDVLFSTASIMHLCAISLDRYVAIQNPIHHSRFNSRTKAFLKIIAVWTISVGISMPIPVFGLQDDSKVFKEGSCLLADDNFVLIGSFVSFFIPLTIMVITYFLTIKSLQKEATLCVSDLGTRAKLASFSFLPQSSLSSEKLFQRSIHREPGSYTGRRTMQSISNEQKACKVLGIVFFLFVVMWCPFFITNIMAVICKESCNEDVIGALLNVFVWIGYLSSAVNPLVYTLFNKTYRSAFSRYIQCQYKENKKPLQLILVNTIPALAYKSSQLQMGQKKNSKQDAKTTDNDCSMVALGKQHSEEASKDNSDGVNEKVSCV
Compound,nH (Hill coefficient) (sigma-1 receptor [4]),% Inh. (sigma-1 receptor [4]; 0.03 μM) [%],% Inh. (sigma-1 receptor [4]; 0.1 μM) [%],% Inh. (sigma-1 receptor [4]; 0.5 μM) [%],% Inh. (sigma-1 receptor [4]; 1 μM) [%],% Inh. (sigma-1 receptor [4]; 10 μM) [%],pIC50 (sigma-1 receptor [5]),pKi (sigma-1 receptor [5]),nH (Hill coefficient) [6],% Inh. ([6]; 0.003 µM) [%],% Inh. ([6]; 0.3 µM) [%],pIC50 [6],pKi [6],"% Inh. (sigma-1 receptor [4]; 10 nM, 0.01 µM) [%]",% Inh. (sigma-1 receptor [4]; 5 μM) [%],% Inh. (sigma-1 receptor [4]; 16 μM) [%],% Inh. ([6]; 0.01 µM) [%],% Inh. ([6]; 0.03 μM) [%],% Inh. ([6]; 1 μM) [%],inhibition at 0.1 µM ([6]; read-out: % Inh.) [%],also measured
"CN(C)CCc1c[nH]c2ccccc12 [DMT, N, N-Dimethyltryptamine]",,,,,,,,,,,,,,,,,,,,,"functional recovery [1]: improved; infarct (dead cells) volume [1]: reduced; oral availability ([2]; po): not orally available; half-life [2]: 15 min; neurite outgrowth of rat cortical neurons ([3]; DMT stimulation, overall): showed beneficial effects"
CNC1(c2ccccc2Cl)CCCCC1=O (stereo not drawn) [Ketamine],,,,,,,,,,,,,,,,,,,,,"neurite outgrowth ([3]; 10 nM, 1-72 h stimulation): did not show any significant beneficial effects"
"CN(C)CCc1c[nH]c2ccccc12.O=C(O)/C=C/C(=O)O [N,N-Dimethyltryptamine fumarate, reference compound]",0.76,15,7,5,14,50,4.99,5.28,0.75,8,48,6.60,7.15,,,,,,,,"% Inh. (sigma-1 receptor [4]; 10 nM): 6%; inhibition at 5 µM (sigma-1 receptor [5]; read-out: % Inh., 5 μM): 36%; inhibition at 16 µM (sigma-1 receptor [5]; read-out: % Inh., 16 μM): 59%; % Inh. ([6]; 0.1 μM): 26%; % Inh. ([6]; 3 µM): 93%; % Inh. ([6]; 10 μM): 98%; inhibition at 0.01 µM ([6]; read-out: % Inh.): 15%; inhibition at 0.03 µM ([6]; read-out: % Inh.): 24%; inhibition at 1 µM ([6]; read-out: % Inh.): 76%"
"CN(C)CCc1c[nH]c2ccccc12 [N,N-Dimethyltryptamine nicotinate]",,−9,−3,−13,5,44,,,0.71,,31,6.22,6.77,−6,23,44,14,17,59,19,binding affinity to sigma-1-receptors (sigma-1 receptor [4]; at concentrations above 0.5 μM): good binding affinity; inhibition at 0.003 µM ([6]; read-out: % Inh.): 7%; inhibition at 3 µM ([6]; read-out: % Inh.): 79%; inhibition at 10 µM ([6]; read-out: % Inh.): 92%
"CN(C)CCc1c[nH]c2ccccc12 [N,N-Dimethyltryptamine pamoate]",1.35,−10,0,1,6,,5.20,5.49,0.92,2,,6.72,7.27,−14,45,77,10,20,86,34,"affinity to sigma-1 receptors compared to DMT fumarate (sigma-1 receptor [4]; at concentrations above 1 μM): better affinity; inhibition at 10 µM (sigma-1 receptor [5]; read-out: % Inh., 10 μM): 64%; 5HT2A binding compared to DMT fumarate [6]: improved 5HT2A binding; inhibition at 0.3 µM ([6]; read-out: % Inh.): 56%; inhibition at 3 µM ([6]; read-out: % Inh.): 95%; inhibition at 10 µM ([6]; read-out: % Inh.): 100%"
